This assay relates to AR transcriptional activity (PSA promoter activity). The assay can be described thus: PSA luciferase assay in C4-2-PSA-rl cells (Dual-Glo luciferase system). The settings on record: C4-2-PSA-rl cells; for IC50: 24 h treatment, 1 nM R1881, mean and SD of 2-6 independent experiments; for activity in PSA luciferase assay (in words): up to 25 μM.

Method: C4-2-PSA-rl cells were seeded in 24-well plates such that they reached 75-80% cell monolayer density after 24 h. […] Each compound was tested in at least two independent experiments. Luciferase activity was assayed using the Dual-Luciferase® Reporter Assay System (Promega) using LMax II Microplate Reader (Molecular Devices). The luciferase assay results were acquired using SoftMax Pro5.45 software (Molecular Devices) and analyzed using GraphPad Prism. PSA6.1-luc activity was normalized to the Renilla luciferase activity. Relative luciferase activity was calculated as the quotient of androgen-induced PSA-firefly/Renilla luciferase activity. Since PSA promoter activity correlates to AR transcriptional activity, inhibition of AR will result in decreased PSA-luciferase activity.

As usually defined, the IC50 is the concentration needed to halve the response being measured. A low value points to greater potency. For the compound `Cc1ccccc1N1CCN(C(=O)[C@H]2C[C@@H]2c2ccccc2)CC1` (racemic) [Compound 16, ((1SR,2SR)-2-Phenylcyclopropyl)(4-(o-tolyl)piperazin-1-yl)methanone], the “activity in PSA luciferase assay (in words)” value (“activity” for short) is “essentially inactive”. Also, under “24 h”, the IC50 was more than 25 µM.

For `Cc1noc(C)c1CSCC(=O)N1CCN(c2ccccc2)CC1` [Compound 5a, 2-(((3,5-Dimethylisoxazol-4-yl)methyl)thio)-1-(4-phenylpiperazin-1-yl)ethanone], the “activity” value is on record as “deleted activity”. This compound returned an IC50 (24 h) of more than 25 µM.

As for `Cc1ccccc1N1CCN(C(=O)CSCc2c(C)noc2C)CC1` [Compound 5b, 2-(((3,5-Dimethylisoxazol-4-yl)methyl)thio)-1-(4-(o-tolyl)piperazin-1-yl)ethanone], the IC50 (24 h) worked out at 14.5 µM.

For the compound `Cc1cccc(N2CCN(C(=O)CSCc3c(C)noc3C)CC2)c1` [Compound 5c, 2-(((3,5-Dimethylisoxazol-4-yl)methyl)thio)-1-(4-(m-tolyl)piperazin-1-yl)ethanone], the “activity” value was “loss of activity”. Where the note is “24 h”, this compound came in with an IC50 of more than 25 µM.

In the case of `Cc1ccc(N2CCN(C(=O)CSCc3c(C)noc3C)CC2)cc1` [Compound 5d, 2-(((3,5-Dimethylisoxazol-4-yl)methyl)thio)-1-(4-(p-tolyl)piperazin-1-yl)ethanone], the “activity” value is on record as “loss of activity”. This compound also showed an IC50 (24 h) of more than 25 µM.

Take `Cc1noc(C)c1CSCC(=O)N1CCN(c2ccccc2C#N)CC1` [Compound 5e, 2-(4-(2-(((3,5-Dimethylisoxazol-4-yl)methyl)thio)acetyl)piperazin-1-yl)benzonitrile]: 12 ± 1.6 µM corresponded to half-maximal inhibition (IC50). Under “24 h”, this compound showed an IC50 of 12 to 13 µM.

Compound `Cc1noc(C)c1CSCC(=O)N1CCN(c2ccccc2F)CC1` [Compound 5f, 2-(((3,5-Dimethylisoxazol-4-yl)methyl)thio)-1-(4-(2-fluorophenyl)piperazin-1-yl)ethan-1-one] displayed an IC50 of 12.6 ± 7.7 µM. For the setting “24 h”, this compound showed an IC50 of 12 to 13 µM.

The compound `Cc1noc(C)c1CSCC(=O)N1CCN(c2cccc3ccccc23)CC1` [Compound 5g, 2-(((3,5-Dimethylisoxazol-4-yl)methyl)thio)-1-(4-(naphthalen-1-yl)piperazin-1-yl)ethanone] registered a concentration for half-maximal inhibition (IC50) (24 h) of 11.1 µM.

With `COc1ccccc1N1CCN(C(=O)CSCc2c(C)noc2C)CC1` [Compound 5h, 2-(((3,5-Dimethylisoxazol-4-yl)methyl)thio)-1-(4-(2-methoxyphenyl)piperazin-1-yl)ethanone], the “activity” value was “complete loss of activity”. The compound also showed an IC50 (24 h) of more than 25 µM.

In turn, `Cc1ccccc1N(C)CCN(C)C(=O)CSCc1c(C)noc1C` [Compound 5i, 2-(((3,5-Dimethylisoxazol-4-yl)methyl)thio)-N-methyl-N-(2-(methyl(o-tolyl)amino)ethyl) acetamide] came in with an IC50 (24 h) of 18.4 µM.

Regarding `Cc1ccccc1N1CCCN(C(=O)CSCc2c(C)noc2C)CC1` [Compound 5j, 2-(((3,5-Dimethylisoxazol-4-yl)methyl)thio)-1-(4-(o-tolyl)-1,4-diazepan-1-yl)ethan-1-one], inhibition (24 h) was half-maximal at 11.1 µM (IC50).

Turning to `Cc1ccccc1N1C[C@@H](C)N(C(=O)CSCc2c(C)noc2C)[C@@H](C)C1` [Compound 5k, 1-(2,6-Dimethyl-4-(o-tolyl)piperazin-1-yl)-2-(((3,5-dimethylisoxazol-4-yl)methyl)thio)ethanone], the “activity” value was “significantly more potent than 1”. The compound further returned an IC50 (24 h) of 3.1 µM.

As for `Cc1noc(C)c1CSCC(=O)N1C[C@@H](C)N(c2ccccc2)[C@@H](C)C1` [Compound 5l, 1-(3,5-Dimethyl-4-phenylpiperazin-1-yl)-2-(((3,5-dimethylisoxazol-4-yl)methyl)thio)ethan-1-one], the IC50 came to 14.7 ± 4.4 µM. This compound returned an IC50 (24 h) of 15 to 17 µM.

These data come from patent publication US10544110B2, “Small molecule inhibitors of the nuclear translocation of androgen receptor for the treatment of castration-resistant prostate cancer” (University of Pittsburgh-Of the Commonwealth System of …, priority 2013, dated 2020).
